Assay: T1 black-blood MRI: percentage change in normalized signal units in CSF and parasagittal dura after intrathecal gadobutrol, cohort of 18 individuals (FIG. 23g-w)
Format: in vivo, human
Description: It has for long been an unanswered question how a molecular substance escapes from the CSF of the craniospinal compartment to the dural lymphatics and further to extracranial lymph nodes in humans. Experimental studies in animals have indicated a role of lymphatic vessels in dura mater, but this has yet to be shown in human subjects. The present invention addresses removal of molecular substances from the craniospinal compartment in humans. Basis for the various aspects of the invention are novel observations made by the inventors regarding transport of indicator fluids from CSF to lymphatic structures in dura. The inventors have provided novel observations using time series of MRI T1 black-blood sequences after intrathecal administration of the MRI contrast agent gadobutrol. […]
FIG. 23o-s illustrate the determination of signal unit ratios, which is particularly useful when measuring indication signals from MRI. Enrichment of indicator fluid is measured as change in T1-BB signal units. […] The enrichment of CSF tracer is quantified as change in signal units (SU) within the regions of interest that are marked by an open circle. The measured signal units were normalized against the reference to correct for any baseline shift of image greyscale between time points. […]

Time of peak signal change (normalized T1-BB signal units) (CSF nearby parasagittal dura): 24 h
Time of peak signal change (normalized T1-BB signal units) (parasagittal dura): 24 h
Structure (SMILES): O=C([O-])CN1CCN(CC(=O)[O-])CCN([C@H](CO)[C@H](O)CO)CCN(CC(=O)[O-])CC1.[Gd+3] (racemic) [gadobutrol]
